What was measured:
MNoV^CW3 = experiment: MNoV binding assay to BV2 cells (bound genomes by qPCR); type: cell-based, murine norovirus; conditions: wild type or CD300lf-mutant BV2 cells, 1 μg/ml kifunensine
Experimental: MNoV^CW3 quantitiatve PCR (qPCR) was performed as previously described. Briefly, 5 μl of extracted viral RNA was used for cDNA synthesis using random hexamers and ImProm Reverse Transcriptase (Promega, Madison, Wis.) in 20 μl total volume. TaqMan qPCR was performed in triplicate on each sample and standard with forward primer SEQ ID NO:20 (5′ […] 3′), reverse primer SEQ ID NO:21 (5′ GCGCTGCGCCATCACTC 3′), and probe.
MNoV^CW3 binding to BV2 cells was performed for 1 hour at 4° C. in 0.5 ml complete growth media. sCD300lf was incubated with MNoV^CW3 for 30 minutes at room temperature prior to addition to cells. α-CD300lf was incubated with cells for 30 minutes at 4° C. prior to the addition of MNoV^CW3. BV2 cells were used at final concentration of 2×10^6 cells/ml, and MNoV^CW3 was used at a final concentration of 1.6×10^9 copies/ml (2.5×10^6 PFU/ml). Cells were centrifuged at 500 g for 5 min at 4° C. to remove unbound virus. Cells were washed with four 1.0 ml washes with PBS containing 2.5% FBS and 2 mM EDTA. The cell pellet was resuspended in 100 μl PBS, and RNA was extracted with the ZR Viral RNA kit (Zymo Research) according to manufacturer instructions. qPCR was performed as described above. Binding experiments were done in triplicate in each of at least three independent experiments. A condition containing virus but no cells was used to determine assay background.
(§1) To determine the effect of glycans on MNoV binding, parental BV2 cells, ΔCD300lf BV2 clone 1 cells complemented with an empty lentivirus, and ΔCD300lf BV2 clone 1 cells complemented with CD300lf were cultured in the presence of 1 μg/ml of kifunensine (Santa Cruz Biotechnology) for at least 48 hours prior to use. Kifunensine activity was determined by staining cells with FITC-conjugated wheat germ agglutinin (WGA) at 1 μg/ml final concentration (Sigma Aldrich). The reduction in glycosylation was determined by comparing the mean fluorescence intensity (MFI) with and without kifunensine treatment. WGA binding was determined at the time of each binding assay.

BV2 cells = experiment: Kifunensine treatment, WGA-FITC staining of cell surface carbohydrates; type: cell-based, mouse; conditions: 1 μg/ml kifunensine for at least 48 hours
Experimental: as §1

## O=C1N[C@@H]2[C@@H](O)[C@@H](O)[C@H](O)[C@@H](CO)N2C1=O [kifunensine]
MNoV^CW3
  MNoV^CW3 binding to kifunensine treated cells: did not significantly alter MNoV^CW3 binding
BV2 cells
  Cell surface carbohydrates (WGA-FITC binding, MFI): significantly reduced cell surface carbohydrates

From patent US20180252712A1, “RECEPTOR FOR NOROVIRUS AND USES THEREOF” (priority 2017, published 2018)
